Literature values as cited in patent US12029798B2, “Pre-targeting strategies for molecular imaging and/or radioimmunotherapy” (UNIVERSITY OF PITTSBURGH—OF THE COMMONWEALTH SYSTEM OF …, priority 2016, dated 2024).

Settings: reaction with azides

Which cycloaddition rate does the source give for oxa-dibenzocyclooctynes [ODIBO] here?
Its cycloaddition rate is 43 M^−1S^−1.
